Entries after “also recorded” stand apart in the source; their conditions may differ.
Tests used:
[1] = tested on: HT1080, HeLa and DU145 cells; assay: Colony formation assay, non-PCa and AR-negative PCa cells; assay type: cell-based, human; details: 10 μM, 7 days
Method: (§1) Cell Colony Assay: Cells were plated in 24-well plates at a density allowing 6-7 days of exponential growth before confluency. Medium and compound was replaced every 48 hours to minimize the effect of potential compound instability. After 7 days of incubation in the presence of compound, cells were fixed and stained with methylene blue, followed by extraction of the stain with 1% SDS and spectrophotometry at 650 nm. Each assay was run in triplicate and the difference between control and compound-treated wells was determined using Student's t-test.
This Example provides a description of the effect of the selected compounds on the growth of PCa cells. To test the toxicity of the identified AR inhibitors towards cells of different origins, we performed colony formation assays using a single dose of each compound (10 μM) on several PCa (LNCaP, C4-2, CWR22R and DU145) and two non-PCa (HT1080 and HeLa) cell lines (FIG. 2A). […] These compounds were not weaker inhibitors of AR transcriptional activity in CWR22R or C4-2 cells than compounds that inhibited growth of the cells.

[2] = tested on: CWR22R cells; assay: Cell cycle distribution by propidium iodide staining; assay type: cell-based, human
Method: Analysis of cell cycle distribution was based on staining of DNA content by propidium iodide. 10^5 cells were removed from culture dishes using trypsin, washed with PBS and resuspended in 300 μl 3% BSA in PBS, followed by addition of […] 70% ethanol. Cells were kept at −20° C. for several hours and then stained with 10 μg/ml propidium iodide in the presence of 30 μg/ml RNase A for 2 hrs at 37° C. DNA content was assessed using a FACS Calibur instrument and CellQuest software (Becton Dickinson, Franklin Lakes, N.J.).
To test this possibility, we assessed the cell cycle distribution of CWR22R cells treated with both categories of compounds. […] Therefore, different subsets of compounds inhibiting AR-dependent transcription in androgen-independent PCa cells cause either growth arrest or apoptosis in these cells. Whether a compound causes growth arrest or apoptosis is not determined by the potency of the compound as an inhibitor of AR-dependent transcription (i.e., FIG. 2B).

[3] = Microsomal stability; assay type: in vitro ADME; details: 1 hour incubation with rat microsomes
Method: Five hit compounds, representing both the ARTIS and ARTIK categories (c6, c11, c17, c52 and c85), were selected for in vivo tests based on all of the previous assays. Compound c5 was rejected due to very low microsomal stability (<5% after 1 hour incubation with rat microsomes). The toxicity of the compounds was evaluated in a dose escalation assay in which male NIH Swiss mice (n=4) received three sequential intraperitoneal (i.p.) injections of each compound delivered in 3 day intervals. The first dose was 20-fold higher than the in vitro IC50 (20×IC50) for the compound in CWR22R cells recalculated based on mouse weight (see Example 1) and the second and third doses were 50×IC50 and 100×IC50, respectively. On the day after the last injection, half of the mice in each group were sacrificed for gross pathology examination and collection of blood for serum biochemistry assays, which include total protein, glucose, bilirubin, and creatinine levels, activity of liver enzymes, and ion concentrations. The remaining mice were sacrificed and evaluated similarly 7 days after the last compound injection. […] A minor decrease in serum glucose concentration (70-80% of control) was observed on the day after the last compound injection in almost all mice, but glucose levels were normal a week later (data not shown). […]

[4] = tested on: AR-expressing PCa cell lines (LNCaP, C4-2, CWR22R); assay: Toxicity to AR-expressing PCa cell lines (colony formation / dose-dependent growth inhibition); assay type: cell-based, human
Method: as §1
Dose-dependent inhibition of cell growth: Cells were plated at 1×10^3 cells per well in 96-well plates. Compounds were added in a dose range from 1 to 20000 nM in two-fold increments. Each dose was tested in triplicate. Controls were 0.1% DMSO (no effect on cell viability) and 50 μM 9-aminoacridine (complete cell death). Cells were incubated for 6 days and then fixed and stained with methylene blue, followed by extraction of the stain with 1% SDS and spectrophotometry at 650 nm. The assay was run two times and, based on the results, the inhibitory concentration of compound suppressing cell growth by 50% as compared to DMSO (IC50) was calculated by the sigmoid approximation method using CalcuSyn software (Biosoft, Chembridge, UK). Confidence intervals were calculated for each sigmoid.
This Example provides a description of the effect of the selected compounds on the growth of PCa cells. To test the toxicity of the identified AR inhibitors towards cells of different origins, we performed colony formation assays using a single dose of each compound (10 μM) on several PCa (LNCaP, C4-2, CWR22R and DU145) and two non-PCa (HT1080 and HeLa) cell lines (FIG. 2A). […] These compounds were not weaker inhibitors of AR transcriptional activity in CWR22R or C4-2 cells than compounds that inhibited growth of the cells. […]

[5] = tested on: PSA levels; details: Phase I clinical trial, castration resistant PCa; cited from earlier work
[6] = biological target: T1, AR LBD (Homo sapiens, UniProt P10275); details: cited from earlier work
T1 sequence (P10275 1-920): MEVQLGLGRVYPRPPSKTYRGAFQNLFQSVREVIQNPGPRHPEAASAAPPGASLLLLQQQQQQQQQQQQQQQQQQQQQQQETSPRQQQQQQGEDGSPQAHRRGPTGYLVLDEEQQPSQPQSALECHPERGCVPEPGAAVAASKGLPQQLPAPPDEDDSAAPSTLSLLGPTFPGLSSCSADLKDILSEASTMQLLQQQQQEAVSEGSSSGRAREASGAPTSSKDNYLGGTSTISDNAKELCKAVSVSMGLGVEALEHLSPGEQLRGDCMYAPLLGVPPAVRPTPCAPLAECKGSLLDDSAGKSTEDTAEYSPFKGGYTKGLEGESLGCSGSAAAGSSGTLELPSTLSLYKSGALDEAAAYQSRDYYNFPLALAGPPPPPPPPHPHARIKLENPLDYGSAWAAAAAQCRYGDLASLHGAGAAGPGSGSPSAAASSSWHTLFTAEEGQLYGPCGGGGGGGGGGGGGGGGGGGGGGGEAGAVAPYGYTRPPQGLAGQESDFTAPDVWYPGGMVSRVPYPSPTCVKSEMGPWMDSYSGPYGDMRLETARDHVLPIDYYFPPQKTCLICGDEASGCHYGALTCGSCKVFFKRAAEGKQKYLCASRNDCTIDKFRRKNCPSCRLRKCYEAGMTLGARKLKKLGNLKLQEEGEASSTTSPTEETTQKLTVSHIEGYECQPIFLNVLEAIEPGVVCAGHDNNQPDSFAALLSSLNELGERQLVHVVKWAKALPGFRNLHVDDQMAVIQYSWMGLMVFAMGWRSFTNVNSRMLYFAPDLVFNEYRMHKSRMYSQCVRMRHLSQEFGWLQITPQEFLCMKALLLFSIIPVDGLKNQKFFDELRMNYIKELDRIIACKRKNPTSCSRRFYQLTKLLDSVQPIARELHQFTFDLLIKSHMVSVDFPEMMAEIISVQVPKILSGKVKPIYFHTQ

O=C1N=C(Nc2cccc(Cl)c2Cl)SC1=Cc1ccco1 [c5]
growth of / toxicity towards non-PCa cells or AR-negative PCa cells (DU145) [1]: no toxicity | changes in cell cycle distribution ([2]; increase in G1, decrease in S phase): cell cycle arrest | cells with sub-G1 DNA content (apoptotic) ([2]; propidium iodide FACS): did not result in appearance of cells with sub-G1 DNA content | microsomal stability, compound left [3]: < 5% | toxicity towards AR-expressing PCa cell lines ([4]; colony formation, 10 μM, three AR-expressing PCa cell lines): different degrees of toxicity; also recorded: suppress growth of all | degree of toxicity to PCa cells (killing vs reduced growth) ([4]; dose-dependent toxicity, by day 7): reduced growth as compared to untreated control cells, but not obvious cell death

CNC(=O)c1ccc(N2C(=S)N(c3ccc(C#N)c(C(F)(F)F)c3)C(=O)C2(C)C)cc1F [MDV3100]
PSA levels in patients [5]: demonstrated efficacy in decreasing PSA levels

CNC(=O)c1ccc(N2C(=S)N(c3ccc(C#N)c(C(F)(F)F)c3)C(=O)C23CCC3)cc1F [RD162]
partial agonist activity on AR [6]: not displayed | binding to the AR LBD ([6]; non-competitive antagonists): bind with high affinity to the AR LBD

Reference: patent publication US8835447B2, “Method for treating androgen receptor positive cancers” (priority 2009, dated 2014)
